Assay results reported in paper PMC3100199 (ACS medicinal chemistry letters, 2011).

What was measured:
[1] = target: T1, PKD1 (Homo sapiens, UniProt Q15139); conditions: PKD; cited from earlier work
T1 sequence (Q15139 1-912): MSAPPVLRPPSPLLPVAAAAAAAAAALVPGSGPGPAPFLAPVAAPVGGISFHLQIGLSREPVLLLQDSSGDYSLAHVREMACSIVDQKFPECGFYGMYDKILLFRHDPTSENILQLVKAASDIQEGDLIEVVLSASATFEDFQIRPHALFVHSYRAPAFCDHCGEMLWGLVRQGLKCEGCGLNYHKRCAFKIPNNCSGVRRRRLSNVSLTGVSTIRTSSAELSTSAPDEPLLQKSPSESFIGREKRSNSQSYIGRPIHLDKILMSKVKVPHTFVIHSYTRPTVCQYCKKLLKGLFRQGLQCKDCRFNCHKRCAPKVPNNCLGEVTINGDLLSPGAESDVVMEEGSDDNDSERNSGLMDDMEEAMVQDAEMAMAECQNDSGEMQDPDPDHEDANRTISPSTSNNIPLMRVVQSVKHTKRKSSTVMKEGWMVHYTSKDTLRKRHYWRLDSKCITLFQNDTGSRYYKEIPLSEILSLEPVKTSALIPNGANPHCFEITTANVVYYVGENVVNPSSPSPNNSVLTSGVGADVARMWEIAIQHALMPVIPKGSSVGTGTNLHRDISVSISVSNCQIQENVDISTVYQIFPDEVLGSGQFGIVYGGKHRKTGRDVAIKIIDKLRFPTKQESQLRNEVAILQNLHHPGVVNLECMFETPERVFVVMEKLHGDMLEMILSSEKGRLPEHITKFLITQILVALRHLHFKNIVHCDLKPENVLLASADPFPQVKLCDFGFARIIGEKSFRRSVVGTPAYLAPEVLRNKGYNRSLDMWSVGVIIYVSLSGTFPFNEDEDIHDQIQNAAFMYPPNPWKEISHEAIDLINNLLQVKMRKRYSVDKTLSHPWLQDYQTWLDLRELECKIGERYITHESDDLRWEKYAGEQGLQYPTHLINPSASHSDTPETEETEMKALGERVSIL

[2] = target: PKCα (Homo sapiens, UniProt P17252); experiment: Selectivity assay against PKCα; assay type: biochemical; conditions: selectivity counterscreen
[3] = target: PKCβI (Homo sapiens, UniProt P05771); experiment: Selectivity assay against PKCβI; assay type: biochemical; conditions: selectivity counterscreen
Chain of PKCβI (P05771 whole entry): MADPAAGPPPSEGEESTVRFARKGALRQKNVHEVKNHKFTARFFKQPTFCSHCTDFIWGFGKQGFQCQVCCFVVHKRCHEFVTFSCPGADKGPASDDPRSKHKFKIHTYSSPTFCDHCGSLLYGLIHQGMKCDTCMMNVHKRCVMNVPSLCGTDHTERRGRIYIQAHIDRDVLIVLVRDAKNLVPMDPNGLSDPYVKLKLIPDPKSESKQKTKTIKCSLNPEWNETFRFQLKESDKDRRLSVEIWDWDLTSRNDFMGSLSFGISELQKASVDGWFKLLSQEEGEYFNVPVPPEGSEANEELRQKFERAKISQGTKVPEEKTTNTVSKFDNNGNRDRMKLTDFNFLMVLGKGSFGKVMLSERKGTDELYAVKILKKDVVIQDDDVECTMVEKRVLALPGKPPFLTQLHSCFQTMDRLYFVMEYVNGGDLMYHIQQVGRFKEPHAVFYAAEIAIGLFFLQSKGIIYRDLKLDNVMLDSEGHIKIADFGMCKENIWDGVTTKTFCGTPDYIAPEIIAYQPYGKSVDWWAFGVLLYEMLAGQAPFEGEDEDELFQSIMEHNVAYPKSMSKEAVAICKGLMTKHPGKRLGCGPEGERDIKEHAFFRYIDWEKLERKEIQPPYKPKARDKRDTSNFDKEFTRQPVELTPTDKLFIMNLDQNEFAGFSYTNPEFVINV

[4] = target: PKCδ (Homo sapiens, UniProt Q05655); experiment: Selectivity assay against PKCδ; assay type: biochemical; conditions: selectivity counterscreen
Chain of PKCδ (Q05655 whole entry): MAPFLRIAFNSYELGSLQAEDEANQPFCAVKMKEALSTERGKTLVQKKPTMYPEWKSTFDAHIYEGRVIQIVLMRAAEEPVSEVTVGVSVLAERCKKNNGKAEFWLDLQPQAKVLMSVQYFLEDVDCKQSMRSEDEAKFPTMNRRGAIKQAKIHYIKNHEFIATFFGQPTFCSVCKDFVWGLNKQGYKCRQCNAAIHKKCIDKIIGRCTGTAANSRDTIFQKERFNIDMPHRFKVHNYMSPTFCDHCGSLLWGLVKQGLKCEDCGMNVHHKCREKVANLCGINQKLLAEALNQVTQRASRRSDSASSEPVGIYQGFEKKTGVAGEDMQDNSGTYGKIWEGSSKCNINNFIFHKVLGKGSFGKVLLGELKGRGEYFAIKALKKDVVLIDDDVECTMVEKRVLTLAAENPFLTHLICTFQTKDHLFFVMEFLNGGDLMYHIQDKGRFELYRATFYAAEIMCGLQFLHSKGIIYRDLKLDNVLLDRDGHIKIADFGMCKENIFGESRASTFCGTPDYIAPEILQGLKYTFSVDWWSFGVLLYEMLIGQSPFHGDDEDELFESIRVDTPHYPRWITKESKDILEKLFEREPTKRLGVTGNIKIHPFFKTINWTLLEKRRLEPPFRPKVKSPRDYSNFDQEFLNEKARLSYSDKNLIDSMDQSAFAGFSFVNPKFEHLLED

[5] = target: T1, PKD1; experiment: PKD1 radiometric kinase activity assay; assay type: biochemical; conditions: ratio of in vitro IC50 vs CID755673
[6] = target: T2, PKD1 autophosphorylation at S916 in LNCaP prostate cancer cells (Homo sapiens, UniProt Q15139); experiment: Cellular PKD1 autophosphorylation at S916; assay type: cell-based; conditions: vs CID755673
T2 sequence (Q15139 1-912): T1 sequence (Q15139 1-912)

[7] = in vivo studies; cited from earlier work

Row | Compound | activity against PKCα [2] | activity against PKCβI [3] | activity against PKCδ [4] | mode of inhibition (ATP competition) [1] | improvement in PKD1 in vitro potency over CID755673 [5] [fold] | improvement (lowering) of cellular IC50 compared to CID755673 [6] [fold] | plasma half-life [7]
1 | O=C1NCCCc2c1oc1ccc(O)cc21 [CID755673] | – | – | – | not an ATP-competitive inhibitor | – | – | –
2 | O=C1NCCSc2c1sc1ccc(O)cc21 [kb-NB142-70] | – | – | – | – | ~7 | 5 | short plasma half-life
3 | COc1ncc2sc3c(c2n1)SCCNC3=O [kmg-NB4-23] | did not detect significant activities | did not detect significant activities | did not detect significant activities | – | – | – | –

Further lines, with some results ahead:

Row | activity against PKCα [2] | activity against PKCβI [3] | activity against PKCδ [4] | Compound | mode of inhibition (ATP competition) [1] | improvement in PKD1 in vitro potency over CID755673 [5] [fold] | improvement (lowering) of cellular IC50 compared to CID755673 [6] [fold] | plasma half-life [7]
4 | did not detect significant activities | did not detect significant activities | did not detect significant activities | O=C1NCCCc2c1[nH]c1ccc(O)cc21 [kb-NB123-57] | – | – | – | –
5 | did not detect significant activities | did not detect significant activities | did not detect significant activities | [N-]=[N+]=Nc1ccc2sc3c(c2c1)SCCNC3=O [mcf292-08] | – | – | – | –
